# Legend:
# Assay type in all cases: cell-based
# [1] = tested on: Desulfovibrio longus ATCC 51456; experiment: Biocidal efficacy against SRB, 2 hour treatment time
# Description: (§1) The synergy indexes reported in the following examples are calculated using the following equation: Synergy Index=Ca/CA+Cb/CB
# (§2) Ca: Concentration of biocide A required to achieve a certain level of bacterial kill when used in combination with B
# (§3) CA: Concentration of biocide A required to achieve a certain level of bacterial kill when used alone
# (§4) Cb: Concentration of biocide B required to achieve a certain level of bacterial kill when used in combination with A
# (§5) CB: Concentration of biocide B required to achieve a certain level of bacterial kill when used alone.
# (§6) A synergy index (SI) of 1 indicates additivity, a synergy index of less than 1 indicates synergy, and a synergy index greater than 1 indicates antagonism.
# (§7) Inside an anaerobic chamber (Bactron anaerobic chamber), a deoxygenated sterile salt solution (3.1183 g of NaCl, 1.3082 mg of NaHCO3, 47.70 mg of KCl, 72.00 mg of CaCl2, 54.49 mg of MgSO4, 172.28 mg of Na2SO4, 43.92 mg of Na2CO3 in 1 L water) is inoculated with Desulfovibrio longus ATCC 51456 to a final bacterial concentration of 10^6 to 10^7 CFU/mL.
# [2] = tested on: Pseudomonas aeruginosa ATCC 10145 and Staphylococcus aureus ATCC 6538; experiment: Biocidal efficacy against aerobic bacteria, 2 hr, minimum concentration for complete bacterial kill; conditions: 37° C.
# Description: as §1, §2, §3, §4, §5, §6
# (§8) Synergy Index is then calculated.
# [3] = tested on: Desulfovibrio longus ATCC 51456; experiment: Biocidal efficacy against anaerobic bacteria, 24 hours, minimum concentration for 99.999% bacterial reduction; conditions: 35° C.
# Description: as §1, §2, §3, §4, §5, §6, §7
# [4] = tested on: Pseudomonas aeruginosa ATCC 10145 and Staphylococcus aureus ATCC 6538; experiment: Biocidal efficacy against aerobic bacteria, 24 hours, minimum concentration for 99.9% bacterial kill; conditions: 37° C.
# Description: as §1, §2, §3, §4, §5, §6, §8
# [5] = tested on: Biofilms of Desulfovibrio longus ATCC 51456; experiment: Biofilm removal, Calgary Biofilm Device, crystal violet staining; conditions: 2 hours treatment
# Description: Biofilms of Desulfovibrio longus ATCC 51456 are grown in a Calgary Biofilm Device (Innovotech, Alberta, Canada) at 35° C. and under anaerobic conditions for 72 hours with shaking (125 rpm). Modified Baar's Medium (ATCC #1249 Broth) is used as culture medium and the medium is changed after 48 hrs of incubation. […] After biocide treatment, the pegs are rinsed again with deoxygenated sterile 0.85% NaCl solution and then the total biofilm left on each peg is measured according to the following description. The biofilm is fixed with 99% methanol and, after air drying, the pegs are stained with 2% (w/v) crystal violet and washed with tap water. The pegs are then air dried and the crystal violet bound to the biofilm is extracted with 33% glacial acetic acid. The total remaining biofilm is determined by the optical density (OD) of the extracted solution at 580 nm.
# [6] = PHMB part of minimum concentration
# [7] = THPS part of minimum concentration
substance,measurement,setting,value
tetrakis (hydroxymethyl) phosphonium sulfate [THPS],"Concentration (ppm a.i.) for complete SRB kill, PHMB",[1]; [6],0.0 ppm a.i.
same,"Concentration (ppm a.i.) for complete SRB kill, THPS",[1]; [7],22.2 ppm a.i.
same,"Concentration (ppm a.i.) for aerobic bacteria kill, PHMB",[2]; PHMB part of minimum concentration for complete bacterial kill,0 ppm a.i.
same,"Concentration (ppm a.i.) for aerobic bacteria kill, THPS",[2]; THPS part of minimum concentration for complete bacterial kill,50 ppm a.i.
same,"Concentration (ppm a.i.) for anaerobic bacteria kill, PHMB",[3]; PHMB part of minimum tested concentration for 99.999% bacterial reduction,0.0 ppm a.i.
same,"Concentration (ppm a.i.) for anaerobic bacteria kill, THPS",[3]; THPS part of minimum tested concentration for 99.999% bacterial reduction,8.8 ppm a.i.
same,"Concentration (ppm a.i.) for 99.9% bacterial kill, PHMB",[4]; [6],0.0 ppm a.i.
same,"Concentration (ppm a.i.) for 99.9% bacterial kill, THPS",[4]; [7],19.8 ppm a.i.
same,"Remaining biofilm, OD580 (optical density of biofilm captured crystal violet)",[5]; 50 ppm active,0.59
same,"Remaining biofilm, OD580 (optical density of biofilm captured crystal violet)",[5]; 200 ppm active,1.03

# Source: patent US9131698B2, “Biocidal compositions and methods of use” (Dow Global Technologies LLC, priority 2011, dated 2015)
